{"source": "paper PMC11653257", "about": "“Organometallic Half-Sandwich Complexes of 8-Hydroxyquinoline-Derived Mannich Bases with Enhanced Solubility: Targeting Multidrug Resistant Cancer” (Inorganic Chemistry, 2024)", "key": {"[1]": {"settings": "pH 7.4; cited from earlier work"}, "[2]": {"test_system": "MES-SA", "settings": "monoculture, PrestoBlue; ref SI2; cited from earlier work"}, "[3]": {"test_system": "MES-SA/Dx5", "settings": "monoculture, ref SI2, cited from earlier work"}, "[4]": {"test_system": "A431", "parameters": "method as in earlier work", "settings": "monoculture, 72 h, PrestoBlue; ref SI3; cited from earlier work"}, "[5]": {"test_system": "A431-B1", "parameters": "method as in earlier work", "settings": "monoculture, ref SI3, cited from earlier work"}, "[6]": {"test_system": "MES-SA", "assay": "Cytotoxicity in double coculture, MES-SA mCherry", "settings": "Homo sapiens, MES-SA, 144 h, read-out: IC50 MES-SA"}, "[7]": {"test_system": "MES-SA/Dx5", "assay": "Cytotoxicity in double coculture, MES-SA/Dx5 eGFP", "settings": "for IC50: Homo sapiens, MES-SA/Dx5, 144 h, read-out: IC50 MES-SA/Dx5; for SR = IC50 (MES-SA)/IC50 (MES-SA/Dx5): double coculture", "protocol": "Therefore, the novel half-sandwich complexes (1–4) and their corresponding ligands were tested against a coculture of MES-SA and MES-SA/Dx5 cells expressing the fluorescent proteins mCherry or eGFP, respectively.[62]\nThe tested compounds were dissolved in 50% (v/v) DMSO/PBS’ buffer to prepare 5–10 mM stock solutions, which were diluted in complete culture medium. Constitutive expression of the fluorescent proteins allowed multiplexing in cytotoxicity experiments.[62] […] Serial dilutions of the compounds were added 24 h after seeding. To address the effect of P-gp function, TQ was added at a nontoxic concentration (0.4 μM) 15 min before the test compounds. […] IC50 values and standard deviation were calculated from average pIC50 values from at least 3 independent measurements."}, "[8]": {"test_system": "MES-SA", "assay": "Cytotoxicity in triple coculture, MES-SA mCherry", "type": "cell-based, human", "settings": "Homo sapiens, MES-SA/B1, MES-SA/Dx5, 144 h", "procedure": "(§1) Cell lines were purchased from the American Type Culture Collection (ATCC). MES-SA/B1 is a human MDR1-transfected derivative of MES-SA, and MES-SA mCherry, MES-SA/B1 mOrange, and MES-SA/Dx5 eGFP were engineered to stably express the respective fluorescent proteins previously.[62] Cells were kept in culture medium (DMEM) supplemented with 10% fetal bovine serum, 2 mM L-glutamine, 100 units/mL penicillin, and 100 μg/mL streptomycin (Thermo Fisher). One week before use, MES-SA/Dx5 eGFP cells were treated with 0.5 μM doxorubicin to ensure ABCB1/P-gp expression.\n(§2) The tested compounds were dissolved in 50% (v/v) DMSO/PBS’ buffer to prepare 5–10 mM stock solutions, which were diluted in complete culture medium. Constitutive expression of the fluorescent proteins allowed multiplexing in cytotoxicity experiments.[62] Cells were mixed before seeding in 384-well plates: in double cocultures, MES-SA mCherry and MES-SA/Dx5 eGFP cells were seeded at 1250–1250 cells/well (in total 2500 cells/well); while in triple cocultures, MES-SA mCherry, MES-SA/Dx5 eGFP and MES-SA/B1 mOrange cells were seeded at 800–800–800 cells/well (in total 2400 cells/well). Serial dilutions of the compounds were added 24 h after seeding. To address the effect of P-gp function, TQ was added at a nontoxic concentration (0.4 μM) 15 min before the test compounds. The intensity of the fluorescent proteins, which is proportional to cell mass, was measured after 144 h of incubation at the respective fluorescent channels (excitation/emission: eGFP: 485 nm/510 nm; mOrange: 545 nm/567 nm; mCherry: 585 nm/610 nm). pIC50 values were calculated by a custom program written by Judit Sessler in C#.[62] IC50 values and standard deviation were calculated from average pIC50 values from at least 3 independent measurements."}, "[9]": {"test_system": "MES-SA/Dx5", "assay": "Cytotoxicity in triple coculture, MES-SA/Dx5 eGFP", "type": "cell-based, human", "procedure": "as §1, §2"}, "[10]": {"test_system": "Colo205", "assay": "Cytotoxicity, Colo205", "type": "cell-based", "settings": "Homo sapiens, COLO 205; 72 h incubation; this work", "source_text": "(§3) Supplementary Information\n(§4) (11 pictures or pasted objects on this page, not shown here)"}, "[11]": {"test_system": "Colo320", "assay": "Cytotoxicity, Colo320", "type": "cell-based, human", "settings": "this work", "source_text": "as §3, §4"}}, "note": "Like-named read-outs stand apart in the source and are kept apart here.", "data": [{"smiles": "Oc1c(CN2CCCCC2)ccc2cccnc12", "note": "[PHQ, 7-(1-piperidinylmethyl)quinolin-8-ol, reference compound]", "values": [{"measurement": "log D7.4", "setting": "[1]", "value": "+0.93"}, {"measurement": "IC50", "setting": "[2]", "value": "3630 ± 580", "unit": "nM"}, {"measurement": "IC50", "setting": "[3]; PrestoBlue", "value": "620 ± 30", "unit": "nM"}, {"measurement": "SR (MES-SA / MES-SA/Dx5)", "setting": "[3]; + 1 µM TQ", "value": 0.92}, {"measurement": "SR (MES-SA / MES-SA/Dx5)", "setting": "[3]", "value": 5.85}, {"measurement": "IC50", "setting": "[4]", "value": "10100 ± 2950", "unit": "nM"}, {"measurement": "IC50", "setting": "[5]; 72 h, PrestoBlue", "value": "2480 ± 700", "unit": "nM"}, {"measurement": "SR (A431 / A431-B1)", "setting": "[5]", "value": 4.09}, {"measurement": "IC50", "setting": "[6]", "value": 3800, "unit": "nM"}, {"measurement": "IC50", "setting": "[7]", "value": 490, "unit": "nM"}, {"measurement": "SR = IC50 (MES-SA)/IC50 (MES-SA/Dx5)", "setting": "[7]; + 0.4 μM tariquidar (TQ)", "value": 1.8}, {"measurement": "SR = IC50 (MES-SA)/IC50 (MES-SA/Dx5)", "setting": "[7]; without TQ", "value": 7.8}]}, {"smiles": "COc1cccc2c1C(=O)c1c(O)c3c(c(O)c1C2=O)C[C@@](O)(C(=O)CO)C[C@@H]3O[C@H]1C[C@H](N)[C@H](O)[C@H](C)O1", "note": "[doxorubicin, reference compound]", "values": [{"measurement": "IC50", "setting": "[8]", "value": 30, "unit": "nM"}, {"measurement": "SR Dx5 = IC50 (MES-SA)/IC50 (MES-SA/Dx5)", "setting": "[9]", "value": 0.03}, {"measurement": "IC50", "setting": "[9]; Homo sapiens, MES-SA/Dx5, 144 h", "value": 1070, "unit": "nM"}, {"measurement": "IC50", "setting": "[10]", "value": "50 ± 10", "unit": "nM"}, {"measurement": "IC50", "setting": "[11]; Homo sapiens, COLO 320, 72 h incubation", "value": "190 ± 20", "unit": "nM"}, {"measurement": "SR (Colo205 / Colo320)", "setting": "[11]", "value": 0.3}, {"measurement": "IC50", "setting": "[6]", "value": 30, "unit": "nM"}, {"measurement": "IC50", "setting": "[7]", "value": 2620, "unit": "nM"}, {"measurement": "SR = IC50 (MES-SA)/IC50 (MES-SA/Dx5)", "setting": "[7]; + 0.4 μM tariquidar (TQ)", "value": 1.3}, {"measurement": "SR = IC50 (MES-SA)/IC50 (MES-SA/Dx5)", "setting": "[7]; without TQ", "value": 0.01}]}]}
